From patent publication EP0328389A2, “Compostions for treating intracranial tumors” (MATRIX PHARMACEUTICAL INC., priority 1988, dated 1989)

Assays:
C3H mice = test: Acute drug toxicity: deaths by day 7 after intracranial drug injection; format: in vivo; details: 0.2 mg/kg vinblastine i.c., 10 µl, right frontal lobe, 5 days post tumor implantation; deaths by day 7 following drug injection; epinephrine 0.1 mg/kg; matrix 1:1 bovine collagen 36 mg/ml
Description: (§1) The use of vinblastine (VBL) and vincristine (VC) alone and in combination with a protein carrier on the growth of experimental murine tumors grown intracranially was investigated. Halothane-anesthesized C3H mice 12-16 weeks in age were injected intracranially (i.c.) into the right frontal lobe with 10 µl total volume of Hank's balanced salt solution containing 5 X 10⁴ KHT fibrosarcoma cells through a burr hole made in the exposed cranium with a compressed air-driven drill. Following injection, the cranium was sealed with bone wax, and the overlying skin was sutured.
(§2) The test solution with and without matrix and the saline control were delivered intracranially (i.c.) in an injection volume of 10 µl through the same burr hole used for tumor cell inoculation. All mice were observed daily.
(§3) The acute drug toxicity level was determined by the percentage of animal survival on day 7 following drug injection. A comparison of the acute toxicity (deaths) of mice treated i.c. with matrix-associated VBL to aqueous VBL (10 µl) injection volume to the right frontal lobe is shown in Table 1 below. […]

[1] = as above; format: in vivo, mice; details: mouse, in vivo, 0.2 mg/kg; read-out: % of Mice That Died
Description: as §1, §2, §3

**Q.** Which “Number of Mice That Died” value (C3H mice) does the source give for `CC[C@]1(O)C[C@@H]2CN(CCc3c([nH]c4ccccc34)[C@@](C(=O)OC)(c3cc4c(cc3OC)N(C)[C@H]3[C@@](O)(C(=O)OC)[C@H](OC(C)=O)[C@]5(CC)C=CCN6CC[C@]43[C@@H]65)C2)C1` [Vinblastine, vinblastine] here?
**A.** 7

**Q.** What about the mortality at 168 h [1] of the same compound?
**A.** 26%
